Reference: patent US5189021A, “Method of treating precocious puberty” (Roussel Uclaf, priority 1979, dated 1993)

Assays:
ovarian steroidogenosis = experiment: Inhibitory activity on ovarian steroidogenesis in women; assay type: in vivo; conditions: for reduction of seric levels of progesterone compared to the controls: typical levels (sheet 3)
Description: The inhibitory activity of [D Ser (tbu)^6 of des GlyNH2^10 ] LH-RH ethylamide on ovarian steroidogenosis in women was determined on 6 women aged 26 to 35 years with normal and regular menstrual cycles and without prior endocrinal or gynecological problems. The study was conducted for 6 consecutive cycles consisting of 2 pretreatment cycles, 2 treatment cycles and 2 post-treatment cycles. Two drops of a solution containing 500 μg of [D Ser (tbu)^6 des GlyNH2^10 ] LH-RH ethylamide were deposited on each nostril at 8 A.M. and 5 P.M. of a day between the 4th and 9th day after the peak of LH-day 0. Daily blood samples were taken between 4 and 6 P.M. to measure seric levels of LH, FSH, progesterone and estradiol which were determined by radioimmumo-logictests with double antibodies. The antibodies to measure LH and FSH were furnished by the National Pituitory Agency of N.I.H. of Bethesda, Md.
Estradiol and progesterone were measured with highly specific antibodies developed against 7-(O-carboxymethyl)-oxime of estradiol and 12-(O-carboxymethyl)-oxime of progesterone, respectively [3H] 17β-estradiol and ^125 I-progesterone-12-[O-carboxymethyl)-oxime]used as tracers. The serum was extracted with benzene and the steroids were separated with a LH-20 column before the determination. The radioimmunological results were exploited by the program derived from model II of Rodbard and Lewald as in Example 1 and the statistical significance was measured by the multiple level test of Ducan-Kramer of Example 1. The results are shown in the graphs of sheets 3 to 5 of the Figures.

[1] = tested on: testicular steriodogenosis; experiment: Inhibitory activity on testicular steroidogenesis in a patient with prostate cancer; assay type: in vivo, human; conditions: 500 μg intranasally twice a day
Description: The inhibitory activity of [D Ser (tbu)^6 of des GlyNH2^10 ] […] The results are reported in the graphs of sheet 2 of the Figures.

[2] = tested on: testicular steroidogensis; experiment: Inhibitory activity against testicular steroidogenesis in men in good health, single intranasal dose; assay type: in vivo
Description: The inhibitory activity of [D Ser (tbu)^6 of des GlyNH^10 ] LH-RH ethylamide (described in German application Ser. No. 2,438,350) against testicular steroidogensis in men in good health was determined on men in good health aged 30 to 40 years. The said product was administered intranasally at a dose of 500 μg in a few drops of distilled water at 8 A.M. on the third day of the test. For 2 days prior to the treatment and for 6 days after the treatment, samples of blood were taken daily at 8 A.M., 3 P.M. and 10 P.M. On the day of administration of the LH-RH agonist, blood samples were taken at 11 A.M. and 6 P.M.
The seric concentrations of LH and FSH were measured by radioimmuno-logic dosages with double antibodies and the antibodies for measuring LH and FSH were furnished by the National Pituitary Agency of N.I.H. in Bethesda, Md. The seric concentrations of steroids was measured by radio-immuno-logic dosages in which one ml of serum was extracted with ether and the steroids were separated on a LH-20 column before measuring with radioimmuno-logic dosages. The radio-immuno-logic dosage results were determined by a program derived from model II of Rodbard et al [Second Karolinska Symposium on Research Methods in Reproductive Endroerinology Diczfalusky Editor, Copenhague (1970), p. 79-103]. The statistical significance was determined by the "multiple level test" of Duncan-Kramer [Kramer, Biometrics, Vol 12 (1956), p. 307]. The results are shown in the graphs on sheet 1 of the Figures filed herewith.

[3] = 3rd day following administration, intranasal 500 μg
[4] = after single intranasal dose of 500 μg

What does the source list for CCNC(=O)[C@@H]1CCCN1C(=O)[C@H](CCCNC(=N)N)NC(=O)[C@H](CC(C)C)NC(=O)[C@@H](COC(C)(C)C)NC(=O)[C@H](Cc1ccc(O)cc1)NC(=O)[C@H](CO)NC(=O)[C@H](Cc1c[nH]c2ccccc12)NC(=O)[C@H](Cc1c[nH]cn1)NC(=O)[C@@H]1CCC(=O)N1 [[D Ser (tbu)^6 des GlyNH2^10] LH-RH ethylamide]?
level of progesterone reduced as compared to the controls (ovarian steroidogenosis; 12 cycles, sheet 5, scale 13 to 127%): 46%; level of progesterone as % of control values (pretreatment cycles = 100%) (ovarian steroidogenosis; cycles of post-treatment, 12 cycles): 99%; level of progesterone as % of control values (pretreatment cycles = 100%) (ovarian steroidogenosis; cycles of treatment, 12 cycles): 46%; reduction of seric levels of progesterone compared to the controls (ovarian steroidogenosis; first cycle of treatment): 13%; reduction of seric levels of progesterone compared to the controls (ovarian steroidogenosis; second cycle of treatment): 34%; level of seric progesterone in the 2 cycles of treatment (ovarian steroidogenosis; sheet 4): accelerated diminution; androgenic steroids (plasmatic level) ([1]; prostate cancer patient): diminution; level of testosterone ([1]; two weeks of treatment): stabilized at a very low level; concentration of 17-OH-progesterone relative to the initial control values [2, 3]: 40%; concentration of testosterone relative to the initial control values [2, 3]: 50%; day on which the steroid level returned to normal [2, 4]: fourth day; duration of the drop of seric levels of testicular steroids (testosterone and its precursors) [2, 4]: 3 days; LH and FSH plasmatic levels ([2]; intranasal 500 μg): increase; seric concentration of pregnenolone, 17-OH-pregnenolone, progesterone, 17-OH-progesterone, Δ5-androstene-3β,17β-diol and testosterone ([2]; on the day of treatment, intranasal 500 μg): increased; diminution of the level of testosterone ([2]; single intranasal dose of 500 μg, human, 3rd day following administration): 50%
